Experimental data published in PMC11059313 (Methods in molecular biology (Clifton, N.J.), 2023).
Non-standard residues stand in square brackets, D forms with d. No end group written: not given here. pY = N[C@@H](Cc1ccc(OP(=O)(O)O)cc1)C(=O)O

B1: p190RhoGAP pTyr-1105 phosphopeptide (residues 1100-1112) (peptide)
peptide: Ac-EEENI[pY]SVPHDST-NH2
SMILES: CC[C@H](C)[C@H](NC(=O)[C@H](CC(N)=O)NC(=O)[C@H](CCC(=O)O)NC(=O)[C@H](CCC(=O)O)NC(=O)[C@H](CCC(=O)O)NC(C)=O)C(=O)N[C@@H](Cc1ccc(OP(=O)(O)O)cc1)C(=O)N[C@@H](CO)C(=O)N[C@H](C(=O)N1CCC[C@H]1C(=O)N[C@@H](Cc1c[nH]cn1)C(=O)N[C@@H](CC(=O)O)C(=O)N[C@@H](CO)C(=O)N[C@H](C(N)=O)[C@@H](C)O)C(C)C

Assays:
[1] = pH 7.4
[2] = biological target: T1, p120RasGAP N-terminal SH2 domain (residues 174-280, C236S, C261S) (UniProt P20936 174-280, C236S | C261S); test: co-crystallisation
T1 sequence (looked up): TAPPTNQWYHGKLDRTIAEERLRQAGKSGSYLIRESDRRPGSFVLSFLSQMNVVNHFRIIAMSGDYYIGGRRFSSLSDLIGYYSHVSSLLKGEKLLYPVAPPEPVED

| Molecule | Maximum Solubility [1] [µg/mL] | binding result [2] |
| --- | --- | --- |
| D[pY]AEPMDA [pY-1087] | 10000 |  |
| B1 |  | binds |
